Source: US12102659B2, “Methods for the prevention or treatment of heart failure” (Cornell University, priority 2009, dated 2024)
Square brackets hold non-standard residues; d marks the D form. Ends that are not written are not given here.

How the values were obtained:
mu-opioid receptor = mu-opioid receptor (Homo sapiens, UniProt P35372); experiment: mu-opioid receptor agonist activity (stated, no method); assay type: biochemical; details: stated in the description, no test described
[1] = system: several mammalian cell types; details: energy-independent manner; cited from earlier work
neonatal cardiomyocytes = experiment: Mitosox flow cytometry of mitochondrial ROS in neonatal cardiomyocytes stimulated with Ang II; assay type: cell-based, mouse; details: SS-31 1 nM or NAC 0.5 mM together with Ang II 1 μM for 3 hours
Experimental: Neonatal mouse cardiomyocyte culture and flow cytometry. Ventricles from mouse neonates younger than 72 hours were dissected, minced, and enzymatically digested with Blendzyme 4 (45 μg/ml, Roche). After enzymatic digestion, cardiomyocytes were enriched using differential pre-plating for 2 hours, then seeded on fibronectin-coated culture dishes for 24 hours in DMEM (Gibco), with 20% Fetal Bovine Serum (Sigma) and 25 μM Arabinosylcytosine (Sigma). Cardiomyocytes were stimulated with Angiotensin II (1 μM) for 3 hours in serum-free DMEM containing 0.5% insulin transferrin-selenium (Sigma), 2 mM glutamine, and 1 mg/ml of BSA. Cardiomyocytes were simultaneously treated with either of the following: SS-31 (1 nM), N-acetyl cysteine (NAC: 0.5 mM), or PBS control. To measure mitochondrial superoxide concentration, Mitosox (5 μM) was incubated for 30 min at 37° C. to load cardiomyocytes, followed by 2 washes, with Hanks Balanced Salt Solution. Samples were analyzed using excitation/emission of 488/625 nm by flow cytometry. Flow data was analyzed using FCS Express (De Novo Software, Los Angeles, CA), and presented as histogram distributions of Mitosox fluorescence intensity.

Sequence of mu-opioid receptor (P35372 whole entry, species assumed): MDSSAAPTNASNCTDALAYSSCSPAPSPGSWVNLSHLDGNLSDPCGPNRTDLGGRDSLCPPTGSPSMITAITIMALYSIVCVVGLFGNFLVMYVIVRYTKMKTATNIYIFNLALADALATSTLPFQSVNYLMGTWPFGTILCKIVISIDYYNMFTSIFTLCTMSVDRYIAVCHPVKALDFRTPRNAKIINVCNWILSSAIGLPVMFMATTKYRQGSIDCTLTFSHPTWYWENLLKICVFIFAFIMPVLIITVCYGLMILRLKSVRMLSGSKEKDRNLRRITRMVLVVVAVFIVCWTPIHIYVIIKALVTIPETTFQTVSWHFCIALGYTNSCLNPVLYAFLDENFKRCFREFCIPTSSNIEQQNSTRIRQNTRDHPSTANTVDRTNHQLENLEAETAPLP

F[dR]FK-NH2 [SS-20]
mu-opioid receptor agonist activity (mu-opioid receptor): does not have mu-opioid receptor agonist activity

2′,6′-Dmt-D-Arg-Phe-Lys-NH2 [SS-02]
penetration of the plasma membrane [1]: readily penetrates the plasma membrane

CC(=O)N[C@@H](CS)C(=O)O [N-acetyl cysteine]
effect on Ang II-induced Mitosox fluorescence / mitochondrial ROS (neonatal cardiomyocytes): did not show any effect
